The assay deals with edemas of the rat ears induced by TPA. Nature of the assay: TPA-induced rat ear edema inhibition test. Type of assay: in vivo, Wistar rats. The note with it: for Edema thickness: topical in acetone 30 min after TPA, measured after 8 hours. The procedure:
The anti-inflammatory activity of the lignan compound isolated and purified in <Example 1> was tested in animal models. The anti-inflammatory activity was measured by edema inhibition test on rats. As the test animals, 5-week-old Wistar rats (DaeHan Biolink Co., Ltd, Korea) were used. The animals were provided with standard pellet forming rat feed (Cheiljedang Corporation, Korea) and given freely to feed and water. Also, the animals were housed in conditions of 12-hr light/12-hr dark cycle, temperature of 25±2° C. and humidity of 60±10%. Inflammation inducing agent TPA (12-O-tetradecanoylphorbol-13-acetate; Sigma) was dissolved in acetone to a concentration of 200 μg/mL. The edemas of the rat ears were induced by applying the TPA solution locally to each of the outer and inner faces of the ear in an amount of 10 μl/ear (4 μg/ear). The macelignan purified in <Example 1> and non-steroidal anti-inflammatory drug indomethacin as a control substance were dissolved in acetone and used in amounts of 20, 200 and 2000 μg/ear. Each of the macelignan and the indomethacin was applied locally to the rat ears at 30 minutes after treatment with TPA. A control group was locally applied with acetone. The thickness of the rat ears was measured with a caliper 8 hours after treatment with each of the substances. An increase in the ear thickness in the group treated with the sample was compared to that of the group untreated with the sample, and inflammation inhibitory effect was measured by calculating percent edema inhibition.

The structures appear in SMILES notation.

With `COc1ccc2c(c1)c(CC(=O)O)c(C)n2C(=O)c1ccc(Cl)cc1` [indomethacin, reference compound], the Edema inhibition was 25.0% (dose 20 μg/ear), 56.5% (dose 200 μg/ear) and 74.2% (dose 2000 μg/ear). Besides, the Edema thickness turned out to be 185 ± 5 μm (dose 20 μg/ear), 108 ± 8 μm (dose 200 μg/ear) and 64 ± 7 μm (dose 2000 μg/ear).

The record behind these values is patent US8853264B2, “Use of lignan compounds for treating or preventing inflammatory disease” (Newtree Industry Co., Ltd., priority 2005, dated 2014).
